Consider seven compounds from PubChem BioAssay AID2060614 (Molecular Pharmacology Branch, DTP, NCI, 2025).

The structures appear in SMILES notation. Where “and” joins values, the source holds several entries; their conditions need not be identical. Equal values may be shown once.

The test has as its system 598228-144-R-J1-PDC complex spheroids, viability. Nature of the test: Anticancer human tumor 598228-144-R-J1-PDC patient-derived serous endometrial adenocarcinoma cell line growth inhibition [CLK]. As to conditions: for viability, T/C: stronger effect = lower value. The method, boiled down: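 Multi-cell-type spheroids combined patient-derived tumor cells with HUVEC endothelial cells and human mesenchymal stem cells. Paired agents were dosed in half-log steps down from about clinical Cmax, or from 10 microM where Cmax was unknown.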

Setting [1] is: curve of first compound, second compound 0.0316 µM.
[2] abbreviates: curve of first compound, second compound 0.1 µM.
The mark [3] stands for this setting: curve of first compound, second compound 0.316 µM.
[4] abbreviates: curve of first compound, second compound 1 µM.
Setting [5] is: curve of first compound, second compound 3.16 µM.
Where [6] appears, read: curve of first compound, second compound 10 µM.
Setting [7] is: second compound 0.0316 µM, first compound 0.0316 µM.
[8] abbreviates: second compound 0.0316 µM, first compound 0.1 µM.
Where [9] appears, read: second compound 0.0316 µM, first compound 0.316 µM.
Setting [10] is: second compound 0.0316 µM, first compound 1 µM.
The mark [11] stands for this setting: second compound 0.0316 µM, first compound 3.16 µM.
[12] abbreviates: second compound 0.0316 µM, first compound 10 µM.
[13] abbreviates: second compound 0.1 µM, first compound 0.0316 µM.
Setting [14] is: second compound 0.1 µM, first compound 0.1 µM.
The mark [15] stands for this setting: second compound 0.1 µM, first compound 0.316 µM.
The mark [16] stands for this setting: second compound 0.1 µM, first compound 1 µM.
Where [17] appears, read: second compound 0.1 µM, first compound 3.16 µM.
Setting [18] is: second compound 0.1 µM, first compound 10 µM.
The mark [19] stands for this setting: second compound 0.316 µM, first compound 0.0316 µM.
Setting [20] is: second compound 0.316 µM, first compound 0.1 µM.
The mark [21] stands for this setting: second compound 0.316 µM, first compound 0.316 µM.
Where [22] appears, read: second compound 0.316 µM, first compound 1 µM.
[23] abbreviates: second compound 0.316 µM, first compound 3.16 µM.
Setting [24] is: second compound 0.316 µM, first compound 10 µM.
Setting [25] is: second compound 1 µM, first compound 0.0316 µM.
Setting [26] is: second compound 1 µM, first compound 0.1 µM.
Where [27] appears, read: second compound 1 µM, first compound 0.316 µM.
[28] abbreviates: second compound 1 µM, first compound 1 µM.
The mark [29] stands for this setting: second compound 1 µM, first compound 3.16 µM.
Where [30] appears, read: second compound 1 µM, first compound 10 µM.
The mark [31] stands for this setting: second compound 3.16 µM, first compound 0.0316 µM.
The mark [32] stands for this setting: second compound 3.16 µM, first compound 0.1 µM.
The mark [33] stands for this setting: second compound 3.16 µM, first compound 0.316 µM.
Where [34] appears, read: second compound 3.16 µM, first compound 1 µM.
[35] abbreviates: second compound 3.16 µM, first compound 3.16 µM.
[36] abbreviates: second compound 3.16 µM, first compound 10 µM.
Setting [37] is: second compound 10 µM, first compound 0.0316 µM.
Where [38] appears, read: second compound 10 µM, first compound 0.1 µM.
Where [39] appears, read: second compound 10 µM, first compound 0.316 µM.
Setting [40] is: second compound 10 µM, first compound 1 µM.
[41] abbreviates: second compound 10 µM, first compound 3.16 µM.
Setting [42] is: second compound 10 µM, first compound 10 µM.
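Further: spheroids exposed to compounds for seven days before readout.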
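Wherever viability, T/C is given: 100% = DMSO vehicle control wells.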

A word on the IC50: it is the concentration that inhibits the measured activity by half. In general, viability, T/C refers to the ratio of treated to control. For `CCCS(=O)(=O)Nc1ccc(F)c(C(=O)c2c[nH]c3ncc(-c4ccc(Cl)cc4)cc23)c1F` + CN1CCN(c2cc(C(=O)Nc3cc4cc(-c5cnn(C)c5)ccc4cn3)ccn2)CC1, the IC50 is, setting by setting: under setting [1], above 10000 nM; under setting [2], above 10000 nM; under setting [3], below 31.6 nM; under setting [4], below 31.6 nM; under setting [5], below 31.6 nM; under setting [6], below 31.6 nM. Also, the viability, T/C is, setting by setting: under setting [7], 114%; under setting [8], 136%; under setting [9], 119%; under setting [10], 145%; under setting [11], 115%; under setting [12], 71%. The viability, T/C runs as follows: under setting [13], 132%; under setting [14], 144%; under setting [15], 111%; under setting [16], 131%; under setting [17], 112%; under setting [18], 72.5%. For the same compound, the viability, T/C by setting is: under setting [19], 20.5%; under setting [20], 23.8%; under setting [21], 19.9%; under setting [22], 15.7%; under setting [23], 17.3%; under setting [24], 15.5%. Besides, the viability, T/C under setting [25] was 1.62%; the viability, T/C under setting [26] was 1.8%; the viability, T/C under setting [27] is 2.03%; the viability, T/C under setting [28] was 1.5%; the viability, T/C under setting [29] is 2.94%; the viability, T/C under setting [30] was 4.26%. Moreover, the viability, T/C by setting is: under setting [31], 2.08%; under setting [32], 6.53%; under setting [33], 1.71%; under setting [34], 2.24%; under setting [35], 5.08%; under setting [36], 7.6%. Further, the viability, T/C is 1.08% under setting [37]; 0.79% under setting [38]; 1.22% under setting [39]; 1.42% under setting [40]; 3.13% under setting [41]; 6.03% under setting [42].

As for `COc1ccc([C@@H](O)c2cc(-c3ncnc4cc(N5CCOCC5)ccc34)c(F)cc2Cl)nn1`, the viability, T/C was 96.2% and 103% (compound 0.0316 µM); 93.5% and 88.3% (compound 0.1 µM); 83.5% and 94.8% (compound 0.316 µM); 63.7% and 76.9% (compound 1 µM); 54.9% and 55.7% (compound 3.16 µM); 34.8% and 31.7% (compound 10 µM). In addition, the IC50 (curve of compound) was 3550 nM and 4190 nM.

As for `CCN1CCN(Cc2ccc(Nc3ncc(F)c(-c4cc(F)c5nc(C)n(C(C)C)c5c4)n3)nc2)CC1` + CN1CCN(c2cc(C(=O)Nc3cc4cc(-c5cnn(C)c5)ccc4cn3)ccn2)CC1, the concentration for half-maximal inhibition (IC50) was above 1000 nM under setting [1]; above 1000 nM under setting [2]; below 3.16 nM under setting [3]; below 3.16 nM under setting [4]; below 3.16 nM under setting [5]; below 3.16 nM under setting [6]. Besides, the viability, T/C is 126% (second compound 0.0316 µM, first compound 0.00316 µM); 113% (second compound 0.0316 µM, first compound 0.01 µM); 119% under setting [7]; 112% under setting [8]; 116% under setting [9]; 103% under setting [10]. The viability, T/C reads like this: (second compound 0.1 µM, first compound 0.00316 µM) 125%; (second compound 0.1 µM, first compound 0.01 µM) 122%; under setting [13], 115%; under setting [14], 115%; under setting [15], 123%; under setting [16], 107%. For the same compound, the viability, T/C is, setting by setting: (second compound 0.316 µM, first compound 0.00316 µM) 17.8%; (second compound 0.316 µM, first compound 0.01 µM) 17.6%; under setting [19], 15.1%; under setting [20], 19.9%; under setting [21], 20.7%; under setting [22], 24.4%. Moreover, the viability, T/C is 1.42% (second compound 1 µM, first compound 0.00316 µM); 5.67% (second compound 1 µM, first compound 0.01 µM); 1.8% under setting [25]; 1.54% under setting [26]; 1.56% under setting [27]; 6.64% under setting [28]. In addition, the viability, T/C is 1.54% (second compound 3.16 µM, first compound 0.00316 µM); 3.86% (second compound 3.16 µM, first compound 0.01 µM); 2.86% under setting [31]; 1.78% under setting [32]; 2.22% under setting [33]; 5.76% under setting [34]. Moreover, the viability, T/C by setting is: (second compound 10 µM, first compound 0.00316 µM) 1%; (second compound 10 µM, first compound 0.01 µM) 3.61%; under setting [37], 0.93%; under setting [38], 1.25%; under setting [39], 3.23%; under setting [40], 3.64%.

On to `O=c1[nH]cc(F)c(=O)[nH]1`, for which the viability, T/C runs as follows: (compound 0.0316 µM) 106% and 89.1%; (compound 0.1 µM) 94.6% and 96.1%; (compound 0.316 µM) 101% and 88.6%; (compound 1 µM) 97.6% and 99.6%; (compound 3.16 µM) 99.3% and 88.9%; (compound 10 µM) 74.2% and 77.3%. In addition, the IC50 (curve of compound) is above 10000 nM.

In the case of `CC(C)CC(NC(=O)C(Cc1ccccc1)NC(=O)c1cnccn1)B(O)O` (centres undefined), the viability, T/C was 96.3% and 107% (compound 0.000949 µM); 60.7% and 68.6% (compound 0.003 µM); 1.72% and 2.43% (compound 0.00949 µM); 2.65% and 0.78% (compound 0.03 µM); 0.47% and 0.54% (compound 0.0949 µM); 1.72% and 0.37% (compound 0.3 µM). Besides, the IC50 (curve of compound) was 3.7 nM and 4.15 nM.

As to `CC1(C)CCC(CN2CCN(c3ccc(C(=O)NS(=O)(=O)c4ccc(NCC5CCOCC5)c([N+](=O)[O-])c4)c(Oc4cnc5[nH]ccc5c4)c3)CC2)=C(c2ccc(Cl)cc2)C1` + CN1CCN(c2cc(C(=O)Nc3cc4cc(-c5cnn(C)c5)ccc4cn3)ccn2)CC1, the 50% inhibitory concentration (IC50) under setting [1] turned out to be 7680 nM; the IC50 under setting [2] was determined as 7690 nM; the half-inhibitory concentration (IC50) under setting [3] is below 31.6 nM; the IC50 under setting [4] was below 31.6 nM; the IC50 under setting [5] was below 31.6 nM; the IC50 under setting [6] is below 31.6 nM. For the same compound, the viability, T/C under setting [7] is 138%; the viability, T/C under setting [8] is 113%; the viability, T/C under setting [9] is 111%; the viability, T/C under setting [10] is 118%; the viability, T/C under setting [11] was 114%; the viability, T/C under setting [12] was 30.9%. In addition, the viability, T/C reads like this: under setting [13], 116%; under setting [14], 121%; under setting [15], 116%; under setting [16], 124%; under setting [17], 113%; under setting [18], 31%. Also, the viability, T/C was 19.3% under setting [19]; 16.8% under setting [20]; 14.4% under setting [21]; 15.5% under setting [22]; 11.9% under setting [23]; 7.07% under setting [24]. Moreover, the viability, T/C by setting is: under setting [25], 1.25%; under setting [26], 1.59%; under setting [27], 2.76%; under setting [28], 1.46%; under setting [29], 2.58%; under setting [30], 1.73%. Further, the viability, T/C under setting [31] was 1.65%; the viability, T/C under setting [32] is 3.1%; the viability, T/C under setting [33] was 1.66%; the viability, T/C under setting [34] was 1.86%; the viability, T/C under setting [35] is 3.99%; the viability, T/C under setting [36] was 4.73%. Also, the viability, T/C runs as follows: under setting [37], 0.92%; under setting [38], 2.13%; under setting [39], 0.62%; under setting [40], 0.79%; under setting [41], 2.58%; under setting [42], 3.9%.

Take `Cn1ncnc1[C@H]1c2n[nH]c(=O)c3cc(F)cc(c23)N[C@@H]1c1ccc(F)cc1`: the viability, T/C by setting is: (compound 0.000316 µM) 111% and 95.5%; (compound 0.001 µM) 103% and 114%; (compound 0.00316 µM) 81.5% and 109%; (compound 0.01 µM) 83.8% and 101%; (compound 0.0316 µM) 95.8% and 103%; (compound 0.1 µM) 76.3% and 84.7%. In addition, under “curve of compound”, the IC50 was above 100 nM.
